Measurements from patent publication US10179761B2, “Compounds, pharmaceutical composition and their use in treating neurodegenerative diseases” (UNIVERSITE DE LILLE 2 DROIT ET SANTE, priority 2014, dated 2019).
Entries after “also recorded” stand apart in the source; their conditions may differ.

Columns and labels:
[1] = molecular target: σ1 receptors (Homo sapiens (Human), UniProt Q99720); assay: σ1 binding assay, Jurkat cell membranes, [3H](+)-pentazocine; settings: hydrochloride salts; mean of 2 or 3 independent experiments; Ki from IC50 (Cheng-Prusoff); read-out: Sigma 1 Ki
[2] = test system: SJL/J mice; assay: EAE model, curative treatment; assay type: in vivo; settings: p.o. from onset of EAE (grade 2) for 14 days, 0.5 or 1 mg/kg; followed 70 days; FIG. 4
Excerpt: Animals. SJL/J mice were purchased from Janvier (Le Genest-St-Isle, France) and bred under conventional barrier protection at the Pasteur Institute (Lille, France). All experiment protocols and procedures were in compliance with the European Communities Council Directives of 24 Nov. 1986 (86/609/EEC) and were approved by the local ethical committee (CEEA 102009R). Efforts were made to minimize the number of animals used and their suffering. Animals that reached severe hind limb paresis (clinical grade 3) were isolated, and hydration and food access were facilitated.
EAE induction and treatment. The method of EAE induction was similar to previously published methods (Lee-Chang et al., Immunol Lett. 2011 Mar. 30; 135(1-2):108-17). […]
Body weight and clinical signs of EAE were monitored daily. The severity of clinical symptoms was scored based on a standard neurological scoring system for EAE, as follows: grade 0, no disease; grade 1, moderate tail hypotonia and/or slight clumsy gait; grade 2, tail atony and/or clumsy gait; grade 3, severe hind limb paresis; grade 4, paraplegia; grade 5, tetraplegia. […]

[3] = test system: Male Swiss mice; assay: Dizocilpine-induced learning deficits: spontaneous alternation in the Y-maze; assay type: in vivo
Protocol: The activity of compound 3.1.10 was evaluated on the prevention of the dizocilpine-induced learning deficits measured using two behavioral tests. The present experiment tested if its anti-amnesic activity could be blocked by pretreatment with the reference sigma-1 receptor antagonist NE-100.
• Sixty (60) mice were used. Behavioral testing started one week after the arrival of the animals in the AMYLGEN animal facility. • 5 treatment groups were designed and used as follows:
• Vehicle 1 was physiological saline for dizocilpine, DMSO 2% in water for compound 3.1.10 • Animals were used at day 1 in the Y-maze test and at days 2 and 3 in the passive avoidance test, with training at day 2 and retention at day 3. • Test compounds, compound 3.1.10 and/or NE-100 were administered 10 min before dizocilpine (at 0.15 mg/kg i.p.) or vehicle. • Dizocilpine or vehicle 1 was administered 20 min before the Y-maze test session on day 1. • Dizocilpine or vehicle 1 was administered 20 min before the passive avoidance training session on day 2. Drugs were not injected before the retention session on day 3. • The whole experiment program was performed in a single serie experiment. • Treatments were randomized. 2.1.2. Animals
Male Swiss mice, 6 weeks old and weighing 30-35 g, from JANVIER (Saint Berthevin, France), were housed in groups with access to food and water ad libitum, except during experiments. They were kept in a temperature and humidity controlled animal facility on a 12 h/12 h light:dark cycle (lights on at 7:00 am). […]
Animals were tested for spontaneous alternation performance in the Y-maze, an index of spatial working memory. […] The number of maximum alternations was therefore the total number of arm entries minus two and the percentage of alternation was calculated as: (actual alternations/maximum alternations)×100. […]
All values, except passive avoidance latencies, were expressed as mean±S.E.M. Statistical analyses were performed using two-way ANOVA (F value), with genotype and peptide treatment as independent factors, followed by a Dunn's post-hoc multiple comparison test.

Chain of σ1 receptors (Q99720 whole entry): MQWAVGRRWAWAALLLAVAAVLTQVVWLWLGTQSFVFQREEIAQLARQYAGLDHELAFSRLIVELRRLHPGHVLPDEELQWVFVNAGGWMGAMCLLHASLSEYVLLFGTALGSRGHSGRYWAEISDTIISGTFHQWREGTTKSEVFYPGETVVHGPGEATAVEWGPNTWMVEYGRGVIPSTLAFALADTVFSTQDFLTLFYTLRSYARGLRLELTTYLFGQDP

## CN(CCCNC(=O)c1ccc(Cl)cc1)Cc1ccccc1 [Compound 3.1.10, N-[3-(benzylmethylamino)propyl]-4-chlorobenzamide]
[1]
  Ki: 3.2 nM
[2]
  EAE clinical course, curative treatment: Amelioration of EAE; also recorded: alleviating the symptoms of EAE
[3]; 0.5 mg/kg i.p., 10 min before dizocilpine 0.15 mg/kg i.p.
  dizocilpine-induced learning deficits, Y-maze test: significantly attenuated
[3]; 3.1.10 0.5 mg/kg + NE-100 3 mg/kg + dizocilpine 0.15 mg/kg i.p.
  beneficial effect of compound 3.1.10 with NE-100, Y-maze test: prevented by treatment with the sigma-1 antagonist NE-100
